Laboratory results: ChEMBL document CHEMBL1201862, “PubChem BioAssay data set” (2004)
Counter-ions that a name gives are not always drawn.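 In this assay, cells in 96-well plates receive the compound at five concentrations for 48 hours. Endpoints are linearly interpolated between the surrounding concentrations. GI50 is the concentration that inhibits growth by half.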 Calls of active or inactive are those of the source. No stated cut-off is given here; in the data, active = GI50 up to about 1.1 µM and inactive = higher.

Legend:
Assay in all cases: DTP human tumour cell line panel, 48 h
[1] = test system: MCF7
[2] = test system: OVCAR-8
[3] = test system: K562
[4] = test system: NCI-H226
[5] = test system: RXF 393
[6] = test system: CCRF-CEM
[7] = test system: LOX IMVI
[8] = test system: DU-145
[9] = test system: M14
[10] = test system: KM12
[11] = test system: SF-295
[12] = test system: SW-620
[13] = test system: NCI-H522
[14] = test system: TK-10
[15] = test system: SF-268
[16] = test system: SNB-75
[17] = test system: PC-3
[18] = test system: IGROV-1
[19] = test system: UO-31
[20] = test system: A549

Row | Structure (SMILES) | GI50 [1] | GI50 [2] | GI50 [3] | GI50 [4] | GI50 [5] | GI50 [6] | GI50 [7] | GI50 [8] | GI50 [9] | GI50 [10] | GI50 [11] | GI50 [12] | GI50 [13] | GI50 [14] | GI50 [15] | GI50 [16] | GI50 [17] | GI50 [18] | GI50 [19] | GI50 [20]
1 | O=C1N(CN2CCOCC2)CN(CN2CCOCC2)C(=O)N1Cc1ccccc1 | 29.4 µM (inactive) | 19.2 µM (inactive) | 24 µM (inactive) | 37.1 µM (inactive) | 17.7 µM (inactive) | 28.7 µM (inactive) | 15.5 µM (inactive) | 24.9 µM (inactive) | 19.2 µM (inactive) | 23.8 µM (inactive) | > 100 µM (inactive) | 22 µM (inactive) | 13.3 µM (inactive) | > 100 µM (inactive) | 22 µM (inactive) | 25.5 µM (inactive) | 29.9 µM (inactive) | 24.5 µM (inactive) | 28.1 µM (inactive) | 40.4 µM (inactive)
2 | O=C(N/C(=C\c1ccccc1)c1nc2ccccc2c(=O)o1)c1ccccc1 | 5.38 µM (inactive) | > 57.7 µM (inactive) | > 100 µM (inactive) | > 67.6 µM (inactive) | > 62.5 µM (inactive) | > 100 µM (inactive) | 27.3 µM (inactive) | > 76.7 µM (inactive) | > 79.6 µM (inactive) | 7.96 µM (inactive) | 36.2 µM (inactive) | > 88.3 µM (inactive) | 38.9 µM (inactive) | > 100 µM (inactive) | 23.8 µM (inactive) | 20.4 µM (inactive) | > 100 µM (inactive) | 31.4 µM (inactive) | > 41.6 µM (inactive) | > 100 µM (inactive)
3 | CCCC(=O)Nc1cc(C(=O)N2C[C@H]3C[C@@]34C2=CC(=O)c2[nH]cc(C)c24)n(COC)c1 | 0.0303 µM (active) | 0.0973 µM (active) | 0.131 µM (active) | 0.475 µM (active) | 0.164 µM (active) | 0.014 µM (active) | 0.12 µM (active) | 0.116 µM (active) | 0.662 µM (active) | 0.449 µM (active) | 0.735 µM (active) | 0.0169 µM (active) | 0.0553 µM (active) | 0.556 µM (active) | 0.103 µM (active) | 0.248 µM (active) | 0.745 µM (active) | 0.11 µM (active) | 0.843 µM (active) | 1.51 µM (inactive)
4 | O=C1Nc2ccccc2S/C1=C\c1cccc(C(F)(F)F)c1 | 0.467 µM (active) | > 100 µM (inactive) | > 100 µM (inactive) | > 100 µM (inactive) | > 100 µM (inactive) | > 100 µM (inactive) | > 100 µM (inactive) | > 100 µM (inactive) | > 100 µM (inactive) | > 100 µM (inactive) | > 100 µM (inactive) | > 100 µM (inactive) | > 100 µM (inactive) | > 100 µM (inactive) | > 100 µM (inactive) | > 100 µM (inactive) | > 100 µM (inactive) | > 100 µM (inactive) | > 100 µM (inactive) | > 100 µM (inactive)
5 | CC[C@]1(Cc2ccc(OC)c(OC)c2)C=[N+]([O-])O[C@H](OCc2ccccc2)[C@@H]1OC(C)=O | 29.7 µM (inactive) | 30.3 µM (inactive) | 20.9 µM (inactive) | 19.3 µM (inactive) | 18.2 µM (inactive) | 19.6 µM (inactive) | 17.5 µM (inactive) | 23.6 µM (inactive) | 33.5 µM (inactive) | 22.2 µM (inactive) | 53.6 µM (inactive) | 32.8 µM (inactive) | 12.4 µM (inactive) | 41.7 µM (inactive) | 23.7 µM (inactive) | 30.5 µM (inactive) | 20.5 µM (inactive) | 25.1 µM (inactive) | 32.1 µM (inactive) | 36.2 µM (inactive)
6 | COc1cc(/C=C2\CCC(C)C3=C(c4cc(OC)c(OC)c(OC)c4)C(C#N)=C(N)OC32)cc(OC)c1OC (stereo not given) | 2.24 µM (inactive) | 3.3 µM (inactive) | 2.85 µM (inactive) | 2.98 µM (inactive) | 1.65 µM (inactive) | 2.05 µM (inactive) | 2 µM (inactive) | 5.09 µM (inactive) | 2.23 µM (inactive) | 3.86 µM (inactive) | 3.65 µM (inactive) | 3.97 µM (inactive) | 2.42 µM (inactive) | 4.21 µM (inactive) | 3.59 µM (inactive) | 1.36 µM (inactive) | 1.83 µM (inactive) | 4.94 µM (inactive) | 3.92 µM (inactive) | 3.46 µM (inactive)
7 | O=[N+]([O-])c1cccc2nccc(NCCCO)c12 | 12.7 µM (inactive) | 14.5 µM (inactive) | 13.2 µM (inactive) | 23 µM (inactive) | 6.17 µM (inactive) | 14.7 µM (inactive) | 12.9 µM (inactive) | 16.8 µM (inactive) | 12.9 µM (inactive) | 10.8 µM (inactive) | 15.5 µM (inactive) | 13.3 µM (inactive) | 6 µM (inactive) | 8.79 µM (inactive) | 11.6 µM (inactive) | 24.3 µM (inactive) | 20.7 µM (inactive) | 13.3 µM (inactive) | 16 µM (inactive) | 16.5 µM (inactive)
8 | [O-][Cl+3]([O-])([O-])O.c1ccc(C2=NN2c2ccccc2)cc1 | 60 µM (inactive) | > 100 µM (inactive) | 2.32 µM (inactive) | 14.3 µM (inactive) | > 100 µM (inactive) | > 100 µM (inactive) | 0.451 µM (active) | 5.89 µM (inactive) | 9.82 µM (inactive) | 7.41 µM (inactive) | > 100 µM (inactive) | 6.01 µM (inactive) | 35.3 µM (inactive) | > 100 µM (inactive) | 21.8 µM (inactive) | > 100 µM (inactive) | 6.7 µM (inactive) | 34 µM (inactive) | 15.9 µM (inactive) | 7.96 µM (inactive)
9 | CCOC(=O)c1c(N2CCOCC2)[nH]c(=O)c(C(c2c(Cl)cccc2Cl)c2c(O)c(C(=O)OCC)c(N3CCOCC3)[nH]c2=O)c1O | 2.47 µM (inactive) | 8.17 µM (inactive) | 2.3 µM (inactive) | 13.8 µM (inactive) | 2.19 µM (inactive) | 1.64 µM (inactive) | 2.91 µM (inactive) | 12.2 µM (inactive) | 2.4 µM (inactive) | 16.9 µM (inactive) | 16 µM (inactive) | 1.7 µM (inactive) | 1.83 µM (inactive) | 4.66 µM (inactive) | 8.22 µM (inactive) | 6.7 µM (inactive) | 15.5 µM (inactive) | 4.09 µM (inactive) | 2.47 µM (inactive) | 18.2 µM (inactive)
10 | O=C1c2c(O)cccc2-c2nn(CCNCCO)c3ccc(NCCNCCO)c1c23 [LOSOXANTRONE HYDROCHLORIDE] | < 0.01 µM (active) | 0.159 µM (active) | 0.238 µM (active) | < 0.0171 µM (active) | 0.188 µM (active) | < 0.01 µM (active) | 0.0667 µM (active) | < 0.01 µM (active) | 0.244 µM (active) | 0.59 µM (active) | 0.0236 µM (active) | 0.116 µM (active) | 0.0228 µM (active) | 0.685 µM (active) | 0.0316 µM (active) | 0.047 µM (active) | 0.16 µM (active) | 0.337 µM (active) | 1.52 µM (inactive) | < 0.01 µM (active)
11 | COc1ccc2c(c1)C(OC)C1c3c(cc4c(c3-2)OCO4)CCN1C (stereo not given) | 2.67 µM (inactive) | 2.5 µM (inactive) | 3.63 µM (inactive) | 2.39 µM (inactive) | 2.06 µM (inactive) | 2.24 µM (inactive) | 2.81 µM (inactive) | 5.41 µM (inactive) | 2.64 µM (inactive) | 4.34 µM (inactive) | 2.38 µM (inactive) | 2.32 µM (inactive) | 1.56 µM (inactive) | 4.53 µM (inactive) | 4.63 µM (inactive) | 4.05 µM (inactive) | 2.6 µM (inactive) | 2.88 µM (inactive) | 1.67 µM (inactive) | 2.92 µM (inactive)
12 | COc1ccc(N2C(=O)C3ON(C(C(N)=O)c4ccccc4)C(c4cc5ccccc5c5ccccc45)C3C2=O)cc1 (stereo not given) | 15.6 µM (inactive) | > 50 µM (inactive) | 22.9 µM (inactive) | 26.3 µM (inactive) | 21.8 µM (inactive) | 12.7 µM (inactive) | 24.2 µM (inactive) | > 50 µM (inactive) | 17.7 µM (inactive) | 32.3 µM (inactive) | > 50 µM (inactive) | 26.9 µM (inactive) | 29.5 µM (inactive) | 28.8 µM (inactive) | 40.9 µM (inactive) | 40.1 µM (inactive) | 30.7 µM (inactive) | 18.4 µM (inactive) | 16.7 µM (inactive) | > 50 µM (inactive)
13 | Oc1ccc(O)c(CNc2ccccc2)c1 | 15.1 µM (inactive) | 8.02 µM (inactive) | 1.65 µM (inactive) | 26.7 µM (inactive) | 5.64 µM (inactive) | 2.37 µM (inactive) | 6.15 µM (inactive) | 12.3 µM (inactive) | 15.7 µM (inactive) | 5.13 µM (inactive) | 12.1 µM (inactive) | 13.6 µM (inactive) | 1.94 µM (inactive) | 22.7 µM (inactive) | 11.6 µM (inactive) | 33.5 µM (inactive) | 10.1 µM (inactive) | 8.53 µM (inactive) | 10.7 µM (inactive) | 26.4 µM (inactive)
14 | C=C(Cl)C(Cl)(CBr)CCC(Cl)C(C)C (stereo not given) | 1.12 µM (active) | 3.19 µM (inactive) | 30.8 µM (inactive) | 30 µM (inactive) | 6.3 µM (inactive) | 26.9 µM (inactive) | 11.6 µM (inactive) | 1.37 µM (inactive) | 22.2 µM (inactive) | 1.23 µM (inactive) | 2.22 µM (inactive) | 2.47 µM (inactive) | 5.93 µM (inactive) | 1.33 µM (inactive) | 1.72 µM (inactive) | 0.323 µM (active) | 1.68 µM (inactive) | 9.31 µM (inactive) | 2.94 µM (inactive) | 8.53 µM (inactive)
